Like-named read-outs stand apart in the source and are kept apart here.
Tests used:
[1] = Liver microsomal stability, human liver microsomes; assay type: in vitro ADME; details: 1 μM compound, NADPH, read-out: t1/2 (min) in HLM
Summary of the method: (§1)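 Compound (1 μM final) was incubated with prewarmed human or rat liver microsomes (1 mg/mL in 100 mM phosphate master mix) plus NADPH; aliquots at 0.5–30 minutes were quenched in cold acetonitrile and quantified by LC-MS/MS. Half-life came from the ln(% remaining) versus time slope, converted to CLint (μL/min/mg prot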

[2] = ADME solubility determination at pH 2.0 and pH 7.4; assay type: physicochemical; details: aqueous buffer, thermodynamic from solid, LC-MS/MS
Summary of the method: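 Dried residues of 10 mM DMSO stocks were shaken in PBS pH 7.4 or pH 2.0 for 24 hours at 25° C. and 1,100 rpm. After centrifugation, supernatants were quantified by LC-MS/MS against a standard of known concentration, applying a dilution factor.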

[3] = Liver microsomal stability, rat liver microsomes; assay type: in vitro ADME; details: 1 μM compound, NADPH, read-out: t1/2 (min) in RLM
Summary of the method: as §1

[4] = PBS pH 2.0, shaken at 25° C. for 24 hours, read-out: Solubility at pH 2.0
[5] = PBS pH 7.4, shaken at 25° C. for 24 hours, read-out: Solubility at pH 7.4

half-life at 1 μM [1] [min]	solubility at 24 h [2, 4] [µM]	solubility at 24 h [2, 5] [µM]	half-life at 1 μM [3] [min]	Compound
> 25	> 10	> 10	< 25	COc1ncnc(C2CC2)c1-c1ncc2cnn([C@H](C)c3ccc(-c4nc(C(F)(F)F)cn4C(C)C)cc3)c2n1 [Example 98]
< 25	> 10	< 10	< 25	CCn1cc(C(F)(F)F)nc1-c1ccc(Cn2ncc3cnc(-c4c(OC)ncnc4C4CN(C)C4)nc32)cc1 [Example 101]
< 25	> 10	> 10	< 25	COc1ncnc(C2(C)CC2)c1-c1ncc2cnn(Cc3ccc(-c4nc(C(F)(F)F)cn4C)cc3)c2n1 [Example 104]
> 25	> 10	> 10	> 25	COc1ncnc(C2(C)CC2)c1-c1ncc2cnn(Cc3ccc(-c4nc(C(F)(F)F)cn4C(C)C)cc3)c2n1 [Example 107]
< 25	> 10	< 10	< 25	COc1ncnc(C2CC2(C)C)c1-c1ncc2cnn(Cc3ccc(-c4nc(C(F)(F)F)cn4C(C)C)cc3)c2n1 (stereo not drawn) [Example 108]
< 25	< 10	< 10	< 25	COc1ncnc(C(C)(C)C)c1-c1ncc2cnn(Cc3ccc(-c4nc(C(F)(F)F)cn4C)cc3)c2n1 [Example 109]
< 25	> 10	> 10	> 25	COc1ncnc(C(C)(C)F)c1-c1ncc2cnn(Cc3ccc(-c4nc(C(F)(F)F)cn4C)cc3)c2n1 [Example 110]
> 25	> 10	> 10	< 25	CCOc1ncnc(OC)c1-c1ncc2cnn(Cc3ccc(-c4nc(C(F)(F)F)cn4CC)cc3)c2n1 [Example 113]
< 25	< 10	< 10	< 25	COc1ncnc(C(C)C)c1-c1ncc2cnn(Cc3ccc(-n4nc(C(F)(F)F)cc4C)cc3)c2n1 [Example 115]
< 25	> 10	> 10	< 25	CCn1cc(C(F)(F)F)nc1-c1ccc([C@H](C)n2ncc3cnc(-c4c(OC)ncnc4C(C)C)nc32)cc1 [Example 117]
> 25	< 10	> 10	> 25	COc1ncnc(C(C)C)c1-c1ncc2cnn(Cc3ccc(-c4nc(C(F)(F)F)cn4C(C)C)cc3)c2n1 [Example 119]
> 25	> 10	< 10	< 25	COc1ncnc(C2CC2)c1-c1ncc2cnn(Cc3ccc(-c4nc(C(F)(F)F)cn4CC(C)F)cc3)c2n1 (stereo not drawn) [Example 142]

Continued, compound first:

Compound	half-life at 1 μM [1] [min]	solubility at 24 h [2, 4] [µM]	solubility at 24 h [2, 5] [µM]	half-life at 1 μM [3] [min]
COc1ncnc(C2(C)CC2)c1-c1ncc2cnn(Cc3ccc(-n4nc(C(F)(F)F)cc4C)cc3)c2n1 [Example 105]	> 25	> 10	< 10	> 25
COc1ncnc(C2(C)CC2)c1-c1ncc2cnn(Cc3ccc(-n4nc(C(F)(F)F)cc4OC)cc3)c2n1 [Example 106]	> 25	< 10	< 10	> 25
COc1nc(C)c(-c2ncc3cnn(Cc4ccc(-c5nc(C(F)(F)F)cn5C)cc4)c3n2)c(OC)n1 [Example 111]	< 25	> 10	< 10	> 25
COc1nc(N)nc(C2CC2)c1-c1ncc2cnn(Cc3ccc(-n4nc(C(F)(F)F)cc4C)cc3)c2n1 [Example 112]	> 25	> 10	< 10	> 25
CCn1cc(C(F)(F)F)nc1-c1ccc(Cn2ncc3cnc(-c4c(OC)ncnc4OC4CC4)nc32)cc1 [Example 114]	< 25	> 10	> 10	< 25
CCn1cc(C(F)(F)F)nc1-c1ccc(C(C)n2ncc3cnc(-c4c(OC)ncnc4C(C)C)nc32)cc1F (stereo not drawn) [Example 116]	< 25	> 10	< 10	< 25
CCn1cc(C(F)(F)F)nc1-c1ccc([C@H](C)n2ncc3cnc(-c4c(OC)ncnc4C(C)C)nc32)cc1F [Example 118]	> 25	< 10	< 10	< 25
CNc1cc(C(F)(F)F)nn1-c1ccc(Cn2ncc3cnc(-c4c(OC)ncnc4C4CC4)nc32)cc1 [Example 120]	< 25	< 10	< 10	< 25
COc1ncnc(C2CC2)c1-c1ncc2cnn(Cc3ccc(-n4nc(C(F)(F)F)cc4N(C)C)cc3)c2n1 [Example 121]	< 25	< 10	< 10	< 25
COc1ncnc(C2CC2)c1-c1ncc2cnn(Cc3ccc(-n4nc(C(F)(F)F)cc4N(C)C)c(F)c3)c2n1 [Example 122]	< 25	< 10	< 10	< 25
COc1ncnc(C2CC2)c1-c1ncc2cnn(Cc3ccc(-n4nc(C(F)F)cc4N(C)C)cc3)c2n1 [Example 123]	< 25	< 10	< 10	< 25
COc1ncnc(C2CC2)c1-c1ncc2cnn(Cc3ccc(-c4nc(C(F)(F)F)sc4C)cc3)c2n1 [Example 125]	> 25	< 10	< 10	> 25
COc1ncnc(C2CC2)c1-c1ncc2cnn(Cc3ccc(-c4nc(C(F)(F)F)oc4C)cc3)c2n1 [Example 127]	> 25	< 10	< 10	> 25
CCn1cc(C(F)(F)F)nc1-c1ccc(Cn2ncc3cnc(-c4c(OC)ncnc4C4CC4)nc32)cc1OC [Example 128]	> 25	> 10	> 10	< 25
COc1cc(Cn2ncc3cnc(-c4c(OC)ncnc4C4CC4)nc32)ccc1-c1nc(C(F)(F)F)cn1CCF [Example 129]	> 25	> 10	< 10	> 25
COc1ncnc(C2CC2)c1-c1ncc2cnn(Cc3ccc(-c4nc5c(F)cccc5n4C)cc3)c2n1 [Example 131]	> 25	> 10	< 10	> 25
COc1nc(C)nc(C2CC2)c1-c1ncc2cnn(Cc3ccc(-c4nc(C(F)(F)F)cn4C)cc3)c2n1 [Example 133, 6-(4-Cyclopropyl-6-methoxy-2-methylpyrimidin-5-yl)-1-(4-(1-methyl-4-(trifluoromethyl)-1H-imidazol-2-yl)benzyl)-1H-pyrazolo[3,4-d]pyrimidine]	< 25	> 10	> 10	< 25
COc1ncnc(C2CC2)c1-c1ncc2cnn(Cc3ccc(-c4nc(C(F)(F)F)c[nH]4)cc3)c2n1 [Example 134, 6-(4-cyclopropyl-6-methoxypyrimidin-5-yl)-1-(4-(4-(trifluoromethyl)-1H-imidazol-2-yl)benzyl)-1H-pyrazolo[3,4-d]pyrimidine]	> 25	< 10	< 10	> 25
COc1ncnc(C2CC2)c1-c1ncc2cnn(Cc3ccc(-c4nc(C(F)(F)F)c5n4CCNC5)cc3)c2n1 [Example 136, 6-(4-Cyclopropyl-6-methoxypyrimidin-5-yl)-1-(4-(1-(trifluoromethyl)-5,6,7,8-tetrahydroimidazo[1,5-a]pyrazin-3-yl)benzyl)-1H-pyrazolo[3,4-d]pyrimidine]	< 25	> 10	< 10	< 25
COc1ncnc(C2CC2)c1-c1ncc2cnn(Cc3ccc(-c4nc(C(F)(F)F)cn4CCF)cc3)c2n1 [Example 137]	> 25	> 10	> 10	> 25
COc1ncnc(C2CC2)c1-c1ncc2cnn(Cc3ccc(-c4nc(C(F)(F)F)cn4CC(F)F)cc3)c2n1 [Example 138]	> 25	> 10	> 10	> 25
[2H]C([2H])([2H])C([2H])([2H])n1cc(C(F)(F)F)nc1-c1ccc(Cn2ncc3cnc(-c4c(OC)ncnc4C4CC4)nc32)cc1 [Example 139]	> 25	> 10	> 10	> 25
[2H]C([2H])([2H])C([2H])(n1cc(C(F)(F)F)nc1-c1ccc(Cn2ncc3cnc(-c4c(OC)ncnc4C4CC4)nc32)cc1)C([2H])([2H])[2H] [Example 140]	> 25	< 10	< 10	> 25
COc1ncnc(C2CC2)c1-c1ncc2cnn(C(C)c3ccc(-c4nc(C(F)(F)F)cn4CCF)cc3)c2n1 (stereo not drawn) [Example 141]	> 25	> 10	< 10	> 25

From patent publication US11485736B2 (KSQ Therapeutics, Inc., priority 2018, dated 2022)
